{"source": "paper PMC5786306", "about": "“An AKAP-Lbc-RhoA interaction inhibitor promotes the translocation of aquaporin-2 to the plasma membrane of renal collecting duct principal cells” (PLoS ONE, 2018)", "key": {"[1]": {"biological_target": "T1, interaction of the DH domain of AKAP-Lbc and RhoA (Homo sapiens, UniProt P61586)", "T1 construct": "The proteins used were N-terminally His6-tagged AKAP-Lbc-DH domain", "T1 sequence (P61586 whole entry, the tested form may be a part)": "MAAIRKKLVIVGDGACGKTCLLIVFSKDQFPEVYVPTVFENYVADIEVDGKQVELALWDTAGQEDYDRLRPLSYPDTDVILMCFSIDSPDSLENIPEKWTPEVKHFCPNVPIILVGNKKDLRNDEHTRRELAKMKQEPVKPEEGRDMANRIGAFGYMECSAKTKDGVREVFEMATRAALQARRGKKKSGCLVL", "assay": "Alpha screen assay", "assay_type": "binding", "procedure": "Assays were performed according to the manufacturer’s protocol (PerkinElmer) with minor modifications. All reagents were diluted in buffer containing 25 mM Hepes, pH 7.4, 100 mM NaCl, 0.1% bovine serum albumin, 0.05% CHAPS and 50 μM GDP and allowed to equilibrate to room temperature before addition to plates. […] The proteins used were N-terminally His6-tagged AKAP-Lbc-DH domain and C-terminally biotinylated RhoA. […] 8 μL of assay buffer containing donor and acceptor beads at 1:400 dilution was then added, the plate was incubated in the dark for 60 min and then read on a PheraStar FS plate reader (BMG Labtech, Germany) using an AlphaScreen^TM 680 excitation/570 emission filter set.\n11.6 μL of a solution containing 100 nM RhoA and 200 nM AKAP13 in assay buffer was added and incubated with the compounds for 30 min at RT in foil-sealed plates. 8 μL of assay buffer containing donor and acceptor beads at 1:400 dilution was added. The plate was incubated in the dark for 60 min and then read on a PheraStar FS plate reader."}, "[2]": {"biological_target": "T2, GFP-AKAP-Lbc/DHPH (Homo sapiens, UniProt Q12802)", "T2 construct": "His6-AKAP-Lbc/DHPH (aa 1972–2342 of human AKAP-Lbc; NP_006729.4); made in house; host or cells: HEK293-EBNA cells (transient transfection, pTT5)", "T2 sequence (Q12802 1972-2342 isoform Q12802-2)": "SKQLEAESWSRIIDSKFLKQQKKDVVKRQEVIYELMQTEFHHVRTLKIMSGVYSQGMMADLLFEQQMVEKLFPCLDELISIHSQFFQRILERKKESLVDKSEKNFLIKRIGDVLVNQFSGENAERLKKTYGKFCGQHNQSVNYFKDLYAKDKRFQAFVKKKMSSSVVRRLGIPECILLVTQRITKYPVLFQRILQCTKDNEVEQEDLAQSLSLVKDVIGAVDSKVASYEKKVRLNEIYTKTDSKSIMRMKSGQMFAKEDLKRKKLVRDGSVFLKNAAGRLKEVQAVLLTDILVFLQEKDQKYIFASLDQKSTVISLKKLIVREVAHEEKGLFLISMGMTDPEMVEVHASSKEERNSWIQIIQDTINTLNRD", "assay": "Microscale thermophoresis (MST) with GFP-AKAP-Lbc/DHPH", "assay_type": "binding", "conditions": "result in words", "procedure": "The final concentration of GFP-AKAP-Lbc/DHPH was set to 150 nM, 95% LED and 80% MST laser power. […] The samples were incubated in the dark for 1 h incubation at room temperature, and measured with 30 sec laser-on and 5 sec laser-off time at a Monolith NT.115 device (NanoTemper). Measured fluorescence (F) was normalised (Fhot/Fcold = Fsteady state/Finitial state, Fig 3). Values of thermophoresis + T-jump were related to average of each measurement row (16 capillaries). Final values are given as ‰.\nFig 4 The Scaff10 derivative Scaff10-8 binds to RhoA but not to the DHPH domain of AKAP-Lbc. (A-D) Microscale thermophoresis (MST) takes advantage of the phenomenon of directed movement of particles in a temperature gradient. Binding events lead to changes in the hydration shell of biomolecules and a relative change of movement of the molecular complex along a temperature gradient. Using such changes, binding affinities can be determined. MST assays were carried out with (A) the recombinant DHPH domain of AKAP-Lbc fused with GFP and RhoA as a ligand and (B) fluorescent 647-RhoA and the His-tagged AKAP-Lbc/DHPH domain as a ligand. (C) MST assays for the analysis of the binding of Scaff10-8 to 647-RhoA. Upper panels: The concentration of fluorescent 647-RhoA remained constant and Scaff10-8 (left) and Scaff10-7 as a negative control (right) were titrated in increasing concentrations. Lower panels: Values of fluorescence corresponding to upper panels. (D) MST assay showing no binding of Scaff10-8 or Scaff10-7 to GFP-DHPH. Upper panels: The concentration of fluorescent GFP-AKAP-Lbc/DHPH remained constant and Scaff10-8 (left) and Scaff10-7 (right) were titrated in increasing concentrations. Lower panels: Values of fluorescence corresponding to upper panels. […] F norm = normalized fluorescence (fluorescence steady state/fluorescence initial state) indicated in ‰. n = 3–5. Mean ± SEM. […] The ligand protein named in each panel heading is used as the substance label, and it is uncertain whether these count as substances."}, "[3]": {"tested_on": "Cdc42 activity in IMCD cells", "assay": "PAK-1-PBD pull down, Cdc42", "assay_type": "cell-based, rat", "conditions": "30 μM, 1 h", "procedure": "The (p21) binding domain (PBD) of p21 activated kinase 1 protein (PAK-1) spans amino acids 67–150 of PAK-1 and binds specifically to the GTP-bound Rac-1 and Cdc42. The PBD was prepared as described and used for selective precipitation of the activated GTPases from IMCD cells. The PBD was expressed as a GST-fusion protein in DH5α E-coli cells, the cells were lysed using a French press, and the fusion protein was purified with Glutathione Sepharose 4 Fast Flow GST-tagged protein purification resin kit according to the manufacturer’s instructions (GE Healthcare; #17-5132-01). The PAK-1-PBD pull down was carried out with 400–500 μg protein from IMCD cell lysates. Proteins were eluted from the beads by boiling with Laemmli sample buffer, and analyzed by Western blotting. The membranes were first probed for Cdc42, and the GTP-bound active fraction of the protein was related to total Cdc42, and to the loading control GAPDH. The membranes were re-probed for Rac-1 accordingly to determine the active GTP-bound Rac-1 fraction.\nFig 10 Scaff10-8 inhibits activation of RhoA in primary IMCD cells. IMCD cells were incubated with Scaff10-8 (30 μM, 1 h). DMSO (1%), the solvent of Scaff10-8, served as a control. […] Signals were semiquantitatively analyzed by densitometry. […] Statistically significant differences were determined using one-way ANOVA with posthoc Bonferroni. […]"}}}
{"smiles": "CCOC(=O)CCc1c(C)c2ccc(OCC(=O)c3ccc(OC)cc3)cc2oc1=O", "note": "[Scaff10-7, Ethyl 3-[7-[2-(4-methoxyphenyl)-2-oxo-ethoxy]-4-methyl-2-oxo-chromen-3-yl]propanoate]", "values": [{"measurement": "inhibitory effect in Alpha screen", "setting": "[1]; result in words", "value": "without inhibitory effects"}, {"measurement": "binding to GFP-AKAP-Lbc/DHPH", "setting": "[2]", "value": "no binding"}]}
{"smiles": "COc1ccc(-c2coc3cc4oc(=O)c(CCC(=O)O)c(C)c4cc23)cc1", "note": "[Scaff10-8, 3-[3-(4-Methoxyphenyl)-5-methyl-7-oxo-furo[3,2-g]chromen-6-yl] propanoic acid]", "values": [{"measurement": "IC50", "setting": "[1]", "value": 42, "unit": "µM"}, {"measurement": "binding to GFP-AKAP-Lbc/DHPH", "setting": "[2]", "value": "no binding"}, {"measurement": "activity of Cdc42", "setting": "[3]", "value": "did not influence activities"}]}
